Patent US4476120A, “Thiolic derivatives of erythromycin having therapeutic activity, and pharmaceutical compositions containing them” (Sigma Tau Indistrie Farmaceutiche Riunites, p.A, priority 1982, dated 1984)
Where a name gives a salt, the structure may show the parent alone.

Experiment: Acute toxicity
Format: in vivo
Conditions: mouse, in vivo, iv; mortality 10 days after treatment; mice; read-out: LD50 (reliability limits)
Procedure: The acute toxicity was assessed in Swiss white mice by oral and intravenous route. The LD50 values have been calculated by the methods of Probits, starting from the mortality recorded 10 days after the treatment.

CC[C@H]1OC(=O)[C@H](C)[C@@H](O[C@H]2C[C@@](C)(OC)[C@@H](O)[C@H](C)O2)[C@H](C)[C@@H](O[C@@H]2O[C@H](C)C[C@H](N(C)C)[C@H]2O)[C@](C)(O)C[C@@H](C)C(=O)[C@H](C)[C@@H](O)[C@]1(C)O [erythromycin hydrochloride, reference compound]
LD50 at 240 h: 377 mg/kg
